In patent US11053204B2, “Pyrimidinyloxy benzene derivatives as herbicides” (FMC Corporation, priority 2015, dated 2021):

How the values were obtained:
Format in all cases: in vivo
[1] = tested on: blackgrass (Alopecurus myosuroides); test: Test C preemergence, plant response rating; conditions: Alopecurus myosuroides, pre-emergence, Preemergence
Source text: (§1) Seeds of plant species selected from blackgrass (Alopecurus myosuroides), ryegrass, Italian (Italian ryegrass, Lolium multiflorum), wheat (winter wheat, Triticum aestivum), galium (catchweed bedstraw, Galium aparine), corn (Zea mays), crabgrass, large (large crabgrass, Digitaria sanguinalis), foxtail, giant (giant foxtail, Setaria faberii), johnsongrass (Sorghum halepense), lambsquarters (Chenopodium album), morningglory (Ipomoea coccinea), nutsedge, yellow (yellow nutsedge, Cyperus esculentus), pigweed (Amaranthus retroflexus), ragweed (common ragweed, Ambrosia elatior), soybean (Glycine max), barnyardgrass (Echinochloa crus-galli), oilseed rape (Brassica napus), pigweed, palmer (palmer pigweed, Amaranthus palmeri), waterhemp (common waterhemp, Amaranthus rudis), velvetleaf (Abutilon theophrasti), kochia (Kochia scoparia), surinam grass (Brachiaria decumbens), nightshade (eastern black nightshade, Solanum ptycanthum), wild poinsettia (Euphorbia heterophylla), windgrass (Apera spica-venti), and oat, wild (wild oat Avena fatua), were planted into a blend of loam soil and sand or a silt loam soil and treated preemergence with test chemicals formulated in a non-phytotoxic solvent mixture which included a surfactant.
(§2) At the same time, plants selected from these crop and weed species and also chickweed (common chickweed, Stellaria media), buckwheat, wild (wild buckwheat, Polygonum convolvulus), wild mustard (Sinapis arvensis), field poppy (Papaver rhoeas), field violet (Viola arvensis), geranium, cutleaf (cutleaf geranium, Geranium dissectum), Canada thistle (Cirsium arvense), and speedwell (bird's-eye speedwell, Veronica persica), were planted in pots containing Sunshine Redi-Earth® planting medium comprising spaghnum peat moss, vermiculite, starter nutrients and dolomitic limestone and treated with postemergence applications of test chemicals formulated in the same manner. Plants ranged in height from 2 to 18 cm (1- to 4-leaf stage) for postemergence treatments. Treated plants and controls were maintained in a greenhouse for 13 to 15 d, after which time all species were compared to controls and visually evaluated. Plant response ratings, summarized in Table C, are based on a scale of 0 to 100 where 0 is no effect and 100 is complete control. A dash (-) response means no test result.

corn (Zea mays) = test: Test C preemergence, plant response rating; conditions: Zea mays, pre-emergence, Preemergence
Source text: as §1, §2

[2] = tested on: crabgrass, large (large crabgrass, Digitaria sanguinalis); test: Test C preemergence, plant response rating; conditions: Digitaria sanguinalis, pre-emergence, Preemergence
Source text: as §1, §2

[3] = tested on: foxtail, giant (giant foxtail, Setaria faberii); test: Test C preemergence, plant response rating; conditions: Setaria faberi, pre-emergence, Preemergence
Source text: as §1, §2

[4] = tested on: lambsquarters (Chenopodium album); test: Test C preemergence, plant response rating; conditions: Chenopodium album, pre-emergence, Preemergence
Source text: as §1, §2

[5] = tested on: morningglory (Ipomoea coccinea); test: Test C preemergence, plant response rating; conditions: Ipomoea, pre-emergence, Preemergence
Source text: as §1, §2

[6] = tested on: nutsedge, yellow (yellow nutsedge, Cyperus esculentus); test: Test C preemergence, plant response rating; conditions: Cyperus, pre-emergence, Preemergence
Source text: as §1, §2

[7] = tested on: oilseed rape (Brassica napus); test: Test C preemergence, plant response rating; conditions: Brassica napus, pre-emergence, Preemergence
Source text: as §1, §2

[8] = tested on: ragweed (common ragweed, Ambrosia elatior); test: Test C preemergence, plant response rating; conditions: Ambrosia artemisiifolia, pre-emergence, Preemergence
Source text: as §1, §2

[9] = tested on: ryegrass, Italian (Italian ryegrass, Lolium multiflorum); test: Test C preemergence, plant response rating; conditions: Lolium multiflorum, pre-emergence, Preemergence
Source text: as §1, §2

soybean (Glycine max) = test: Test C preemergence, plant response rating; conditions: Glycine max, pre-emergence, Preemergence
Source text: as §1, §2

[10] = tested on: velvetleaf (Abutilon theophrasti); test: Test C preemergence, plant response rating; conditions: Abutilon theophrasti, pre-emergence, Preemergence
Source text: as §1, §2

[11] = tested on: waterhemp (common waterhemp, Amaranthus rudis); test: Test C preemergence, plant response rating; conditions: Amaranthus tuberculatus, pre-emergence, Preemergence
Source text: as §1, §2

[12] = tested on: wheat (winter wheat, Triticum aestivum); test: Test C preemergence, plant response rating; conditions: Triticum aestivum, pre-emergence, Preemergence
Source text: as §1, §2

[13] = tested on: chickweed (common chickweed, Stellaria media); test: Test C postemergence, plant response rating; conditions: Stellaria media, post-emergence
Source text: as §1, §2

[14] = tested on: foxtail, giant (giant foxtail, Setaria faberii); test: Test C postemergence, plant response rating; conditions: Setaria faberi, post-emergence
Source text: as §1, §2

[15] = tested on: morningglory (Ipomoea coccinea); test: Test C postemergence, plant response rating; conditions: Ipomoea, post-emergence
Source text: as §1, §2

[16] = 62 g ai/ha, scale 0 to 100 (0 no effect, 100 complete control)
[17] = 125 g ai/ha, scale 0 to 100 (0 no effect, 100 complete control)

O=C(OCCC(F)(F)F)c1c(Cl)cccc1Oc1ncc(Cl)cn1 [Compound 15, 3,3,3-trifluoropropyl 2-chloro-6-[(5-chloro-2-pyrimidinyl)oxy]benzoate]
pest or weed control at 62 g/ha ([1]; 62 g ai/ha, scale of 0 to 100): 50%
pest or weed control at 125 g/ha ([1]; 125 g ai/ha, scale of 0 to 100): 80%
pest or weed control at 16 g/ha ([1]; 16 g ai/ha, scale 0 to 100): 0%
pest or weed control at 31 g/ha ([1]; 31 g ai/ha, scale 0 to 100): 0%
Corn plant response rating (crop injury, 0 = no effect, 100 = complete kill) at 62 g/ha (corn (Zea mays); 62 g ai/ha, scale of 0 to 100): 10%
Corn plant response rating (crop injury, 0 = no effect, 100 = complete kill) at 125 g/ha (corn (Zea mays); 125 g ai/ha, scale of 0 to 100): 25%
Corn plant response rating (crop injury, 0 = no effect, 100 = complete kill) at 16 g/ha (corn (Zea mays); 16 g ai/ha, scale 0 to 100): 0%
Corn plant response rating (crop injury, 0 = no effect, 100 = complete kill) at 31 g/ha (corn (Zea mays); 31 g ai/ha, scale 0 to 100): 0%
pest or weed control at 62 g/ha ([2]; 62 g ai/ha, scale of 0 to 100): 100%
pest or weed control at 125 g/ha ([2]; 125 g ai/ha, scale of 0 to 100): 100%
pest or weed control at 16 g/ha ([2]; 16 g ai/ha, scale 0 to 100): 95%
pest or weed control at 31 g/ha ([2]; 31 g ai/ha, scale 0 to 100): 100%
pest or weed control at 62 g/ha ([3]; 62 g ai/ha, scale of 0 to 100): 100%
pest or weed control at 125 g/ha ([3]; 125 g ai/ha, scale of 0 to 100): 100%
pest or weed control at 16 g/ha ([3]; 16 g ai/ha, scale 0 to 100): 100%
pest or weed control at 31 g/ha ([3]; 31 g ai/ha, scale 0 to 100): 100%
pest or weed control at 125 g/ha ([4]; 125 g ai/ha, scale of 0 to 100): 95%
pest or weed control at 16 g/ha ([4]; 16 g ai/ha, scale 0 to 100): 60%
pest or weed control at 31 g/ha ([4]; 31 g ai/ha, scale 0 to 100): 70%
pest or weed control at 62 g/ha ([4]; 62 g ai/ha, scale 0 to 100): 85%
pest or weed control at 125 g/ha ([5]; 125 g ai/ha, scale of 0 to 100): 60%
pest or weed control at 16 g/ha ([5]; 16 g ai/ha, scale 0 to 100): 20%
pest or weed control at 31 g/ha ([5]; 31 g ai/ha, scale 0 to 100): 20%
pest or weed control at 62 g/ha ([5]; 62 g ai/ha, scale 0 to 100): 35%
pest or weed control at 125 g/ha ([6]; 125 g ai/ha, scale of 0 to 100): 50%
pest or weed control at 16 g/ha ([6]; 16 g ai/ha, scale 0 to 100): 0%
pest or weed control at 31 g/ha ([6]; 31 g ai/ha, scale 0 to 100): 0%
pest or weed control at 62 g/ha ([6]; 62 g ai/ha, scale 0 to 100): 5%
plant injury at 125 g/ha ([7]; 125 g ai/ha, scale of 0 to 100): 100%
plant injury at 16 g/ha ([7]; 16 g ai/ha, scale 0 to 100): 30%
plant injury at 31 g/ha ([7]; 31 g ai/ha, scale 0 to 100): 100%
plant injury at 62 g/ha ([7]; 62 g ai/ha, scale 0 to 100): 100%
pest or weed control at 125 g/ha ([8]; 125 g ai/ha, scale of 0 to 100): 20%
pest or weed control at 16 g/ha ([8]; 16 g ai/ha, scale 0 to 100): 10%
pest or weed control at 31 g/ha ([8]; 31 g ai/ha, scale 0 to 100): 10%
pest or weed control at 62 g/ha ([8]; 62 g ai/ha, scale 0 to 100): 30%
pest or weed control at 125 g/ha ([9]; 125 g ai/ha, scale of 0 to 100): 50%
pest or weed control at 16 g/ha ([9]; 16 g ai/ha, scale 0 to 100): 0%
pest or weed control at 31 g/ha ([9]; 31 g ai/ha, scale 0 to 100): 5%
pest or weed control at 62 g/ha ([9]; 62 g ai/ha, scale 0 to 100): 15%
plant injury at 125 g/ha (soybean (Glycine max); 125 g ai/ha, scale of 0 to 100): 55%
plant injury at 16 g/ha (soybean (Glycine max); 16 g ai/ha, scale 0 to 100): 0%
plant injury at 31 g/ha (soybean (Glycine max); 31 g ai/ha, scale 0 to 100): 10%
plant injury at 62 g/ha (soybean (Glycine max); 62 g ai/ha, scale 0 to 100): 40%
pest or weed control at 125 g/ha ([10]; 125 g ai/ha, scale of 0 to 100): 100%
pest or weed control at 16 g/ha ([10]; 16 g ai/ha, scale 0 to 100): 60%
pest or weed control at 31 g/ha ([10]; 31 g ai/ha, scale 0 to 100): 85%
pest or weed control at 62 g/ha ([10]; 62 g ai/ha, scale 0 to 100): 100%
pest or weed control at 125 g/ha ([11]; 125 g ai/ha, scale of 0 to 100): 100%
pest or weed control at 16 g/ha ([11]; 16 g ai/ha, scale 0 to 100): 90%
pest or weed control at 31 g/ha ([11]; 31 g ai/ha, scale 0 to 100): 100%
pest or weed control at 62 g/ha ([11]; 62 g ai/ha, scale 0 to 100): 100%
plant injury at 125 g/ha ([12]; 125 g ai/ha, scale of 0 to 100): 5%
plant injury at 16 g/ha ([12]; 16 g ai/ha, scale 0 to 100): 0%
plant injury at 31 g/ha ([12]; 31 g ai/ha, scale 0 to 100): 0%
plant injury at 62 g/ha ([12]; 62 g ai/ha, scale 0 to 100): 0%
pest or weed control at 16 g/ha ([13]; 16 g ai/ha, scale 0 to 100): 35%
pest or weed control at 31 g/ha ([13]; 31 g ai/ha, scale 0 to 100): 80%
pest or weed control at 62 g/ha [13, 16]: 90%
pest or weed control at 125 g/ha [13, 17]: 90%
pest or weed control at 16 g/ha ([14]; 16 g ai/ha, scale 0 to 100): 25%
pest or weed control at 31 g/ha ([14]; 31 g ai/ha, scale 0 to 100): 30%
pest or weed control at 62 g/ha [14, 16]: 20%
pest or weed control at 125 g/ha [14, 17]: 35%
pest or weed control at 16 g/ha ([15]; 16 g ai/ha, scale 0 to 100): 65%
pest or weed control at 31 g/ha ([15]; 31 g ai/ha, scale 0 to 100): 75%
pest or weed control at 62 g/ha [15, 16]: 85%
pest or weed control at 125 g/ha [15, 17]: 90%
